{"source": "patent US4772590A", "about": "“Oily composition of aclarubicin or hydrochloride thereof” (priority 1983, dated 1988)", "key": {"[1]": {"assay": "solubilization of aclarubicin or aclarubicin hydro-chloride in fats and oils by acids", "format": "physicochemical"}, "[2]": {"assay": "solubility of aclarubicin or its hydrochloride in solvents and in fats and oils", "format": "physicochemical", "conditions": "for solubility: organic solvent or mixture"}}, "note": "Where a name gives a salt, the structure may show the parent alone. Read-outs that look alike come from different tables or passages of the source."}
{"smiles": "O=C(O)/C=C/C(=O)O", "note": "[fumaric acid]", "values": [{"measurement": "dissolution of polycarboxylic acid in fats and oils", "setting": "[1]", "result": "not dissolved in fats and oils"}]}
{"smiles": "CC[C@@]1(O)C[C@H](O[C@H]2C[C@H](N(C)C)[C@H](O[C@H]3C[C@H](O)[C@H](O[C@H]4CCC(=O)[C@H](C)O4)[C@H](C)O3)[C@H](C)O2)c2c(cc3c(c2O)C(=O)c2c(O)cccc2C3=O)[C@H]1C(=O)OC", "note": "[Aclarubicin hydrochloride]", "values": [{"measurement": "solubility in acetone", "setting": "[2]; acetone", "result": "freely soluble"}, {"measurement": "solubility in ether", "setting": "[2]; ether", "result": "practically insoluble"}, {"measurement": "solubility in fats and oils", "setting": "[2]; fats and oils", "result": "very sparingly soluble"}, {"measurement": "solubility in methanol", "setting": "[2]; methanol", "result": "freely soluble"}, {"measurement": "solubility in n-hexane", "setting": "[2]; n-hexane", "result": "practically insoluble"}, {"measurement": "solubility", "setting": "[2]; olive oil, olive oil, aclarubicin hydrochloride, read-out: solubility in olive oil", "result": "~4", "unit": "µg/mL"}, {"measurement": "solubility", "setting": "[2]; sesame oil, sesame oil, aclarubicin hydrochloride, read-out: solubility in sesame oil", "result": 16, "unit": "µg/mL"}, {"measurement": "solubility in water", "setting": "[2]; water", "result": "freely soluble"}]}
{"smiles": "CC[C@@]1(O)C[C@H](O[C@H]2C[C@H](N(C)C)[C@H](O[C@H]3C[C@H](O)[C@H](O[C@H]4CCC(=O)[C@H](C)O4)[C@H](C)O3)[C@H](C)O2)c2c(cc3c(c2O)C(=O)c2c(O)cccc2C3=O)[C@H]1C(=O)OC", "note": "[Aclarubicin, methyl(1R, 2R, 4S)-2-ethyl-1,2,3,4,6,11-hexahydro-2,5,7-trihydroxy-6,11-dioxo-4-{[2,3,6-trideoxy-4-O-[2,6-dideoxy-4-O-((2R,6S)-tetrahydro-6-methyl-5-oxo-2H-pyran-2-yl)-α-1-lyxohexopyranocyl]-3-dimethylamino-α-1-lyxo-hexopyranocyl]oxy}-1-naphthacene carboxylate]", "values": [{"measurement": "solubility", "setting": "[2]; olive oil, olive oil, aclarubicin, read-out: solubility in olive oil", "result": 10000, "unit": "µg/mL"}, {"measurement": "solubility", "setting": "[2]; sesame oil, sesame oil, aclarubicin, read-out: solubility in sesame oil", "result": 10000, "unit": "µg/mL"}]}
